# Experimental data taken from ChEMBL document CHEMBL1201862, “PubChem BioAssay data set” (2004).
#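 All cell lines were grown in 96-well plates and treated with compound for 48 hours. GI50 is the concentration that inhibits growth by half.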 Activity calls are given as the source filed them. No stated cut-off is given here; in the data, active = GI50 up to about 1.1 µM and inactive = higher.
# Columns and labels:
# Assay in all cases: DTP human tumour cell line panel, 48 h
# [1] = system: OVCAR-8
# [2] = system: TK-10
# [3] = system: CCRF-CEM
# [4] = system: SNB-19
# [5] = system: HOP-62
# [6] = system: A498
# [7] = system: NCI-H522
# [8] = system: IGROV-1
# [9] = system: MDA-N
# [10] = system: BT-549
# [11] = system: UO-31
# [12] = system: HCT-116
# [13] = system: U-251
# [14] = system: NCI/ADR-RES
# [15] = system: NCI-H23
# [16] = system: SN12C
# [17] = system: A549
# [18] = system: LOX IMVI
# [19] = system: SK-MEL-28
# [20] = system: SNB-75
SMILES,GI50 [1],GI50 [2],GI50 [3],GI50 [4],GI50 [5],GI50 [6],GI50 [7],GI50 [8],GI50 [9],GI50 [10],GI50 [11],GI50 [12],GI50 [13],GI50 [14],GI50 [15],GI50 [16],GI50 [17],GI50 [18],GI50 [19],GI50 [20]
Cc1occc1C(=S)Nc1ccc(Cl)c(C(=O)OC(C)C2CC2)c1 (configuration not stated),18.3 µM (inactive),37.5 µM (inactive),50.1 µM (inactive),17.3 µM (inactive),17.8 µM (inactive),22.3 µM (inactive),14.4 µM (inactive),16 µM (inactive),18.6 µM (inactive),22.5 µM (inactive),14.7 µM (inactive),26.5 µM (inactive),23.9 µM (inactive),19.3 µM (inactive),15.6 µM (inactive),18 µM (inactive),35.2 µM (inactive),19.4 µM (inactive),57.9 µM (inactive),20.4 µM (inactive)
O=C(NCCN1CCCC1)c1cn2c(ccc3sc4ccccc4c(=O)c32)n1,4.95 µM (inactive),12.5 µM (inactive),1.22 µM (inactive),13.7 µM (inactive),11.7 µM (inactive),16.3 µM (inactive),10.7 µM (inactive),11.7 µM (inactive),16.2 µM (inactive),17.6 µM (inactive),13.3 µM (inactive),4.02 µM (inactive),16.7 µM (inactive),13.3 µM (inactive),14.6 µM (inactive),10.9 µM (inactive),7.19 µM (inactive),1.46 µM (inactive),16.6 µM (inactive),19.1 µM (inactive)
COc1ccc(C[N+](C)(C)N)cc1OC,> 10 µM (inactive),> 10 µM (inactive),> 10 µM (inactive),> 10 µM (inactive),> 10 µM (inactive),> 100 µM (inactive),> 10 µM (inactive),> 100 µM (inactive),> 10 µM (inactive),> 10 µM (inactive),> 100 µM (inactive),> 10 µM (inactive),> 10 µM (inactive),> 10 µM (inactive),> 10 µM (inactive),> 10 µM (inactive),> 10 µM (inactive),> 10 µM (inactive),> 10 µM (inactive),> 10 µM (inactive)
OC1CCC(COC(c2ccccc2)(c2ccccc2)c2ccccc2)O1 (configuration not stated),17.9 µM (inactive),> 10 µM (inactive),14.2 µM (inactive),21.1 µM (inactive),19.6 µM (inactive),20.2 µM (inactive),17.7 µM (inactive),18.2 µM (inactive),18.7 µM (inactive),23.8 µM (inactive),17.3 µM (inactive),16.7 µM (inactive),18.8 µM (inactive),17.7 µM (inactive),18 µM (inactive),19.2 µM (inactive),17.7 µM (inactive),15.4 µM (inactive),18 µM (inactive),13.4 µM (inactive)
COc1ccccc1Nc1nc(N)nc(N)c1N,> 100 µM (inactive),> 100 µM (inactive),27 µM (inactive),> 100 µM (inactive),> 100 µM (inactive),> 100 µM (inactive),18.1 µM (inactive),72.6 µM (inactive),17.6 µM (inactive),> 100 µM (inactive),> 100 µM (inactive),19 µM (inactive),64.3 µM (inactive),> 100 µM (inactive),66.1 µM (inactive),17.5 µM (inactive),> 100 µM (inactive),20.8 µM (inactive),> 100 µM (inactive),> 100 µM (inactive)
N/C(COc1ccc(Cl)cc1)=N\NC(=O)c1ccncc1,> 100 µM (inactive),> 100 µM (inactive),51.1 µM (inactive),> 100 µM (inactive),> 100 µM (inactive),57.9 µM (inactive),> 100 µM (inactive),> 100 µM (inactive),> 100 µM (inactive),> 100 µM (inactive),,> 100 µM (inactive),> 100 µM (inactive),49.9 µM (inactive),> 100 µM (inactive),> 100 µM (inactive),> 100 µM (inactive),38.4 µM (inactive),> 100 µM (inactive),30.3 µM (inactive)
O=C(Nc1ccc(Cl)c(Cl)c1)N1N=C2c3ccccc3CCC2C1c1ccc(Cl)cc1 (configuration not stated),> 100 µM (inactive),> 100 µM (inactive),> 100 µM (inactive),> 100 µM (inactive),> 100 µM (inactive),> 100 µM (inactive),> 100 µM (inactive),3.01 µM (inactive),> 100 µM (inactive),> 100 µM (inactive),> 100 µM (inactive),> 100 µM (inactive),> 100 µM (inactive),> 100 µM (inactive),> 100 µM (inactive),> 100 µM (inactive),> 100 µM (inactive),> 100 µM (inactive),> 100 µM (inactive),> 100 µM (inactive)
CC1=NN(c2nc(N)nc(CCl)n2)C(C)(C)C1,23.9 µM (inactive),> 71.6 µM (inactive),8.15 µM (inactive),> 61.9 µM (inactive),3.67 µM (inactive),30.6 µM (inactive),1.39 µM (inactive),4.41 µM (inactive),31.5 µM (inactive),26.7 µM (inactive),9.02 µM (inactive),25.9 µM (inactive),25.4 µM (inactive),14.4 µM (inactive),10.8 µM (inactive),30.3 µM (inactive),42.6 µM (inactive),1.78 µM (inactive),34.1 µM (inactive),24.3 µM (inactive)
Cc1ccc([N+](=O)[O-])cc1S(=O)(=O)Nc1ccc(C(=O)/C=C/c2cccs2)cc1,37.4 µM (inactive),56.2 µM (inactive),0.271 µM (active),21.5 µM (inactive),22.1 µM (inactive),15.3 µM (inactive),19.2 µM (inactive),36.6 µM (inactive),25.2 µM (inactive),18.7 µM (inactive),20 µM (inactive),18.2 µM (inactive),,24.9 µM (inactive),20.2 µM (inactive),24.2 µM (inactive),91.6 µM (inactive),20.7 µM (inactive),23.1 µM (inactive),19.3 µM (inactive)
COC(=O)C[C@H](CCSC)NC(=O)C[C@H](CCSC)NC(=O)C[C@H](CCSC)NC(=O)OC(C)(C)C,28.7 µM (inactive),19.1 µM (inactive),67.1 µM (inactive),20.7 µM (inactive),39.4 µM (inactive),21 µM (inactive),35.2 µM (inactive),56.2 µM (inactive),48.3 µM (inactive),69.3 µM (inactive),> 100 µM (inactive),37.1 µM (inactive),19.5 µM (inactive),> 100 µM (inactive),47.2 µM (inactive),32.8 µM (inactive),43.6 µM (inactive),> 100 µM (inactive),> 100 µM (inactive),13.4 µM (inactive)
C=CCc1c(O)c2ccccc2[nH]c1=O,> 100 µM (inactive),> 100 µM (inactive),> 100 µM (inactive),> 100 µM (inactive),> 100 µM (inactive),> 100 µM (inactive),> 100 µM (inactive),> 100 µM (inactive),> 100 µM (inactive),> 100 µM (inactive),> 100 µM (inactive),> 100 µM (inactive),> 100 µM (inactive),> 100 µM (inactive),> 100 µM (inactive),> 100 µM (inactive),> 100 µM (inactive),> 100 µM (inactive),> 100 µM (inactive),> 100 µM (inactive)
Nc1ncnc2c1ncn2CCCNO,> 100 µM (inactive),> 100 µM (inactive),> 100 µM (inactive),> 100 µM (inactive),> 100 µM (inactive),> 100 µM (inactive),> 100 µM (inactive),> 100 µM (inactive),> 100 µM (inactive),> 100 µM (inactive),> 100 µM (inactive),> 100 µM (inactive),> 100 µM (inactive),> 100 µM (inactive),> 100 µM (inactive),> 100 µM (inactive),> 100 µM (inactive),> 100 µM (inactive),> 100 µM (inactive),> 100 µM (inactive)
Nc1ccc(-c2nc3cc(F)ccc3s2)cc1Br,28.7 µM (inactive),0.0306 µM (active),> 100 µM (inactive),53.3 µM (inactive),12.7 µM (inactive),14.7 µM (inactive),> 42.8 µM (inactive),< 0.01 µM (active),> 100 µM (inactive),7.69 µM (inactive),37.6 µM (inactive),0.0552 µM (active),18.1 µM (inactive),> 56.8 µM (inactive),,> 73.5 µM (inactive),8.97 µM (inactive),> 51.2 µM (inactive),> 100 µM (inactive),18.3 µM (inactive)
CCOC(=O)c1c(CN2CCCC2)n(-c2ccccc2)c2cc(Br)c(O)cc12,22.9 µM (inactive),20.5 µM (inactive),2.06 µM (inactive),16.5 µM (inactive),13.3 µM (inactive),16.4 µM (inactive),17.1 µM (inactive),16.8 µM (inactive),17.2 µM (inactive),36.1 µM (inactive),12.1 µM (inactive),16 µM (inactive),16.3 µM (inactive),22.4 µM (inactive),19.3 µM (inactive),16.4 µM (inactive),16 µM (inactive),16 µM (inactive),15.1 µM (inactive),15.3 µM (inactive)
